Tests used:
[1] = test system: HDM allergen; assay: House dust mite (HDM) allergen challenge in mice; format: in vivo
Experimental: (§1) The conduct of the house dust mite allergy model with RSV complication was conducted as described herein and using the approaches described in Fuchs and Braun 2008 (Curr Drug Targets. 2008 June; 9(6):495-502).

[2] = test system: RSV; assay: RSV infection in Balb/C mice, PF670462 on days 3, 4 and 5; format: in vivo
[3] = test system: GRE-regulated genes; assay: PF670462 aerosol exposure of Balb/C mice, lung gene expression; format: in vivo; details: Balb/C female mice; aerosol 0.03-10 mg/ml, 7 min, 24 and 4 hours before harvest
Excerpt: […] and GILZ are known to exert anti-inflammatory actions in by suppression of the master pro-inflammatory transcription factor, NFκB.

[4] = test system: bleomycin-treated mice
Excerpt: Bleomycin is commonly used in mice to model pulmonary fibrosis. This anti-cancer agent is known to induce pulmonary fibrosis in a subset of patients. […] Eventually the intensity of the fibrosis declines but never fully resolves. Early treatment in the model (during the first 3 days) may influence the outcome via anti-inflammatory effects (Limjunyawong et al. (2014) Physiol Rep. 2(2): e00249). Delayed treatment is used to specifically examine impact on the fibrogenic process.

[5] = test system: GRE-dependent gene expression; assay: Glucocorticoid-induced gene expression in BEAS-2B cells; format: cell-based, human
Excerpt: (§2) The methods used in Examples 1 to 5 (and 10, 19, 20) are similar to those reported in Salem et al 2012 (Br J Pharmacol. 166:2036-2048) and again in Keenan et al 2014 (Respiratory Research, e15:55) in which methods for cell culture, GRE assays and gene expression measurements are fully described. Additional methods for growth of respiratory syncytial virus (RSV) and rhinovirus (RV) are described in Collins et al 2007 (Respir Physiol Neurobiol. 2007 Jun. 15; 156(3):345-52.) and by Xatzipsalti and papdopoulos, 2007 (Contrib Microbiol. 2007; 14:33-41).
Data are presented as the means and SEM of 4 independent experiments. *P<0.05, cf corresponding Dex 30 nM response. […] Thus, TNFα contribution to glucocorticoid resistance, may be independent of TGFβ. The resistance is exemplified by the epithelial sodium channel alpha subunit SCNN1a which assembles into a Na channel that is thought to contribute to water reabsorption from the airspaces that are flooded during acute lung injury.
TGFβ suppression ranged in magnitude amongst the genes selected for analysis. […] TGFβ and Dex synergise in increasing the expression of PAI-1 (FIG. 24B).

[6] = test system: GC responsive genes; assay: Topical (intranasal) PF670462 in naïve Balb/c mice, lung gene expression; format: in vivo; details: naïve Balb/C female mice; PF670462 0.6 μg intranasal 4 and 24 hours before post mortem
[7] = target: T1, ALK5 (Homo sapiens, UniProt P36897); assay: ALK5 inhibition (IC50); format: biochemical
T1 sequence (P36897 34-503): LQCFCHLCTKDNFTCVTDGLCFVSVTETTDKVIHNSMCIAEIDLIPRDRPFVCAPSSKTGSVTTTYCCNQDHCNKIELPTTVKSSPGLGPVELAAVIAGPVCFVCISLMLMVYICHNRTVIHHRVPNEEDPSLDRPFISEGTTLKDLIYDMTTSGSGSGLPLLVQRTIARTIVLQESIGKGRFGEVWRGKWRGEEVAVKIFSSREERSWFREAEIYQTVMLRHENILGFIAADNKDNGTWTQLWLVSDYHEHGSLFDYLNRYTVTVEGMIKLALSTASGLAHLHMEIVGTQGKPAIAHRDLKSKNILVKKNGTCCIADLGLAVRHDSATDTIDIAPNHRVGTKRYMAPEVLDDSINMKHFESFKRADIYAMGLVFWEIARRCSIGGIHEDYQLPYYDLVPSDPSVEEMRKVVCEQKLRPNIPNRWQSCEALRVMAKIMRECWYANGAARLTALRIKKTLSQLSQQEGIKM

[8] = test system: glucocorticoid response element (GRE) activity; assay: GRE activity / GRE reporter in BEAS-2B cells; format: cell-based, human; details: for TGFβ1-induced suppression of the GRE activity stimulated by Dex (30 nM): PF670462 1 or 10 μM 30 min before TGFβ1 for 24 hours
Experimental: Data are presented as the means and SEM of 3 independent experiments. *P<0.05, cf corresponding Dex 30 nM response.
as §2

[9] = test system: RSV; assay: HDM allergen challenge with RSV infection in mice; format: in vivo; details: HDM allergen challenged mice infected with 2 million RSV virions 3 days prior to post mortem
Experimental: as §1

[10] = test system: primary human airway epithelial cells; assay: Dex-induced gene expression in ALI-differentiated primary human airway epithelial cells; format: cell-based; details: 3 and 10 μM
Excerpt: as §2
These studies were undertaken in ALI-differentiated culture of primary human airway epithelial cells.

[11] = Mock-treated mice, PF670462 ip, RT-qPCR
[12] = female Balb/C mice inoculated with RSV, Dex 1 mg/kg (i.p.)/day from day 1, PF670462 30 mg/kg days 3, 4 and 5
[13] = 3-day bleomycin, female mice, PF670462 30 mg/kg ip
[14] = 14 days bleomycin, PF670462 30 mg/kg/day delayed until day 3
[15] = 21 day bleomycin, female mice, PF670462 daily from day 8 until day 21
[16] = 21 day bleomycin, female mice, PF670462 day 8 to 21
[17] = BEAS-2B, Dex 100 nM, PF670462 1-10 μM prior incubation
[18] = FIG. 6A, BEAS-2B, SB431542 1 μM, PF670462 10 μM

## Nc1nccc(-c2c(-c3ccc(F)cc3)ncn2C2CCCCC2)n1 [PF670462]
[1]; HDM allergen 25 μg/35 μL daily intranasal, aerosol PF670462 3 mg/ml, Budesonide 0.5 mg/ml
  increase in the BAL protein level: regulated
[1]; HDM allergen challenged mice, aerosol treatments
  Lymphocyte numbers in BAL: reduced
[2]; FIG. 8B, during RSV infection
  expression of CXCL5: no effect alone
  expression of KC: no effect alone
  expression of TNFα: no effect alone
[2]; FIG. 8C, RSV treated mice, bronchoalveolar lavage cells and lung tissue, PF670462 given with Dex
  IFN expression (IFNα, IFNβ and IFNγ): prevented
[2]; [11]
  expression of GILZ in lung tissue: directly stimulates
  expression of MKP1 in lung tissue: neither Dex nor PF670462 alone increased expression
  expression of ZBTB16 in lung tissue: directly stimulates
[2]; [12]
  bronchoalveolar lavage fluid (BALF) cellular content: no effect
  bronchoalveolar lavage fluid (BALF) protein content: no effect
[3]
  lung expression of GILZ: dose-related increase
  lung expression of ZBTB116: dose-related increase
[4]; [13]
  Bleomycin induction of CTGF in lung tissue: significantly reduced
  Bleomycin induction of Col1a in lung tissue: significantly reduced
  Bleomycin induction of PAI-1 in lung tissue: significantly reduced
  Bleomycin induction of TIMP1 in lung tissue: significantly reduced
[4]; 3-day bleomycin, female mice, PF670462 30 mg/kg ip once daily
  BAL protein levels: significantly reduced
[4]; 3-day bleomycin, male mice
  BAL cells (increase by bleomycin): but not in PF670462- or Dex-treated mice
  Col1A expression increased by bleomycin, lung tissue: reduced
  Col3 expression increased by bleomycin, lung tissue: reduced
  IL-6 increases in response to bleomycin, lung tissue: reduced
  TIMP1 expression increased by bleomycin, lung tissue: reduced
[4]; 4 independent studies, 3 to 21 days, male and female mice, PF670462 30 mg/kg/day, ip
  fibrogenesis / efficacy in the bleomycin model: able to reduce fibrogenesis
[4]; [14]
  accumulation of cells on the BAL fluid: significantly reduced
  wet weight of the lung: significantly reduced
[4]; [15]
  accumulation of cells in the BAL: significantly reduced
  accumulation of protein in the BAL: significantly reduced
  increase in lung wet weight: significantly reduced
[4]; [16]
  expression of CTGF in the lung tissue: significantly reduced
  expression of interleukin-6 (IL-6) in the lung tissue: significantly reduced
  expression of plasminogen activation inhibitor-1 (PAI-1) in the lung tissue: significantly reduced
[4]; 21 day experiment, equally in saline and bleomycin-treated mice
  expression of glucocorticoid regulated gene GILZ in lung: induced
[5]; BEAS-2B cells, IL-13/IL-4 at 10 ng/ml, PF670462 1 or 10 μM, SB431542 1 μM
  suppression of Dex (30 nM) gene expression response (SCNN1a) induced by IL-13/IL-4: partially attenuated
[5]; BEAS-2B cells, RSV 0.1 or 1.0 MOI, pretreatment
  RSV-induced impairment of Dexamethasone ZBTB16 gene expression responses: prevented
[5]; BEAS-2B cells, RV16 1.0 MOI, pretreatment
  impairment of Dexamethasone 30 nM GILZ gene expression responses by RV16 infection: greatly diminished
[5]; BEAS-2B cells, TGFβ1 24 hours, PF670462 1 or 10 μM
  TGFβ1 induced suppression of gene expression responses to Dex (30 nM), exemplified by SCNN1a expression: concentration dependently attenuated
[5]; BEAS-2B cells, each at 0.1 ng/ml, PF670462 1 or 10 μM, SB431542 1 μM
  suppression of Dex (30 nM) gene expression response (SCNN1a) induced by the combination TNFα, IL-13 and IL-4: partially attenuated
[5]; BEAS-2B, Dex 100 nM, PF670462 1-10 μM
  TGFβ suppression of glucocorticoid-induced CDKN1C (p57kip2) expression: unaffected
[5]; [17]
  TGFβ suppression of Dex-induced expression of FKBP5: prevented
  TGFβ suppression of Dex-induced expression of GILZ: prevented
  TGFβ suppression of Dex-induced expression of SCNNIA (ENaCα): prevented
  TGFβ suppression of Dex-induced expression of ZBTB16 (PLZF): prevented
[5]; BEAS-2B, FIG. 24B, PF670462 1-10 μM
  increase in expression of PAI-1 by TGFβ and Dex: concentration-dependently reduced
[5]; [18]
  levels of GILZ in RV infected cells: increased
  levels of GILZ in uninfected cells: but not in uninfected cells
[5]; FIG. 6B, BEAS-2B, SB431542 3 μM, PF670462 3 μM
  RV infection-induced decrease of Dex-induced GILZ expression: prevented
[6]
  effect on the GC responsive genes in lung tissue: direct stimulatory effect
[7]
  IC50: 1160 nM
[8]; BEAS 2B cells, PF670462 0.3-10 μM
  maximum effect of the glucocorticoid (budesonide, dexamethasone 1-100 nM) on GRE reporter construct: concentration dependently increased
[8]; BEAS-2B cells
  TGFβ1-induced suppression of the GRE activity stimulated by Dex (30 nM): concentration-dependently attenuated
[8]; BEAS-2B cells, listed as PF674062
  TGFβ1-induced suppression of the GRE activity stimulated by Dex (30 nM): prevents
[8]; BEAS-2B cells, RV16 0.1 or 1.0 MOI, SB431542 1 μM
  impairment of Dexamethasone 30 nM GRE responses by Rhinovirus (RV16) infection: prevented
[8]; BEAS-2B cells, cytokines each at 1 or 10 ng/ml, PF670462 1 or 10 μM
  Suppression of glucocorticoid-induced GRE responses to Dex (30 nM) induced by the combination TNFα, IL-13 and IL-4: attenuated
[9]
  BAL cell number: not significantly reduced
[10]
  TGFβ suppression of (Dex 30 nM)-induced expression of SCNNIA: prevented
  TGFβ suppression of (Dex 30 nM)-induced expression of ZBTB16: prevented

Source: patent publication US11975005B2, “Treatment of respiratory diseases” (TIANLI BIOTECH PTY LTD, priority 2015, dated 2024)
